From US10695322B2 (priority 2016, dated 2020) come the findings set out here.

Entries after “also recorded” stand apart in the source; their conditions may differ.

The test system of assay [1] is mutant LdtMt2 (Y318A, Y318F, H336N, H352A, H352N, C354A, C354S). The format is binding, M. tuberculosis.
Assay [2] concerns LdtMt2 variants Y318F, H336N, H352N and C354S. The format is binding, M. tuberculosis.
Assay [3] concerns the target T1, LdtMt2 (Mycobacterium tuberculosis, UniProt I6Y9J2). The format is binding, M. tuberculosis.
The target of the next assay is LdtMt1 (Mycobacterium tuberculosis, UniProt O53638). The format is binding, M. tuberculosis.
Assay [4] addresses T1, LdtMt2. Kind of assay: biochemical. Set-up: species or system M. tuberculosis. Conditions: read-out: kinact/Kapp ratio.

T1 sequence (I6Y9J2 56-408 limits assumed): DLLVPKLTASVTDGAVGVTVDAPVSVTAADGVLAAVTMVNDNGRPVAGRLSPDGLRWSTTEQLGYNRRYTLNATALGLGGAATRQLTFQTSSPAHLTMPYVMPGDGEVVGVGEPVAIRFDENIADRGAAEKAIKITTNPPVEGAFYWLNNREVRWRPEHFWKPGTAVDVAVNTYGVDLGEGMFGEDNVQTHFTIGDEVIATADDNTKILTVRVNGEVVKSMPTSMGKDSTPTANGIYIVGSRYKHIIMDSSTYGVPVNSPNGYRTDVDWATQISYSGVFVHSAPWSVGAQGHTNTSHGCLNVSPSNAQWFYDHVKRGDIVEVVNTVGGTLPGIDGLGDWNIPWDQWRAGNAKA
LdtMt1, sequence (O53638 32-251 limits assumed): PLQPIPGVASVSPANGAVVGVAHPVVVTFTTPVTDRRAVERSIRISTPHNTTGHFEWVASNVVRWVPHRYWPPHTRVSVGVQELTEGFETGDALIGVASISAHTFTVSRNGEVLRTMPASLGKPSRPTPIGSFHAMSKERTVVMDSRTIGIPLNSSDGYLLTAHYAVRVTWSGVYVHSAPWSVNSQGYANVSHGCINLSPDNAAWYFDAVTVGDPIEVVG

In the case of `C[C@@H](O)[C@H]1C(=O)N2C(C(=O)[O-])=C(SC3Cn4cnc[n+]4C3)[C@H](C)[C@H]12` (stereo partly drawn) [biapenem], the adduct formation entry in assay [1] is “no adducts could be detected”.
As to `C[C@@H](O)[C@H]1C(=O)N2C(C(=O)O)=C([C@H]3CCCO3)S[C@H]12` [faropenem], in assay [2], the binding affinity entry is “either a complete loss of or no appreciable binding affinities”. In addition, the adduct formation result in assay [1] is reported as “same adducts were detected; also recorded: failed to produce any covalent adduct”.
Take `COC(=O)CSC1=C(C(=O)[O-])N2C(=O)[C@H]([C@@H](C)O)[C@H]2[C@H]1C.[Na+]` [T205, sodium (4R,5S,6S)-6-((R)-1-hydroxyethyl)-3-((2-methoxy-2-oxoethyl)thio)-4-methyl-7-oxo-1-azabicyclo[3.2.0]hept-2-ene-2 carboxylate]: the “reaction and covalent adduct formation” value was “reacted and formed covalent adducts” on LdtMt2 [3]; “reacted and formed covalent adducts” at LdtMt1.
Take `C[C@@H](O)[C@H]1C(=O)N2C(C(=O)O)=C(SCC(=O)OC3CCCCC3)[C@H](C)[C@H]12` [T208]: the “reaction and covalent adduct formation” value on LdtMt2 [3] was “reacted and formed covalent adducts”; on LdtMt1, “reacted and formed covalent adducts”. The kinact/KI on LdtMt2 [4] was 9330 M⁻¹ s⁻¹.
For `C[C@@H](O)[C@H]1C(=O)N2C(C(=O)O)=C(SC3CN(C4=NCCS4)C3)[C@H](C)[C@H]12` [tebipenem], in assay [2], the binding affinity result is reported as “either a complete loss of or no appreciable binding affinities”. Further, in assay [1], the adduct formation entry was “same adducts were detected; also recorded: failed to produce any covalent adduct”.
Turning to `CSC1=C(C(=O)O)N2C(=O)[C@H]([C@@H](C)O)[C@H]2[C@H]1C` [T210], in assay [2], the binding affinity entry was “poor binding affinities”. Moreover, the “reaction and covalent adduct formation” value on LdtMt2 [3] is “reacted and formed covalent adducts”; on LdtMt1 it was “reacted and formed covalent adducts”.
Turning to `CCCOC(=O)CSC1=C(C(=O)O)N2C(=O)[C@H]([C@@H](C)O)[C@H]2[C@H]1C` [T206], the “reaction and covalent adduct formation” value at LdtMt2 [3] was “reacted and formed covalent adducts”; on LdtMt1, “reacted and formed covalent adducts”.
